Source: article PMC3790881, “Identification of Leptospira interrogans Phospholipase C as a Novel Virulence Factor Responsible for Intracellular Free Calcium Ion Elevation during Macrophage Death” (PLoS ONE, 2013)

Molecular target: T1, rL-PI-PLC (recombinant LB361 gene product; L-PI-PLC) (Leptospira interrogans, UniProt Q8EX56)
T1 construct: gene LB_361; entire LB361 gene (amplicon 384 bp) in pET42a, expressed in E. coli BL21DE3, Ni-NTA purified
Test: IP3 fluorescence polarization assay, Lineweaver-Burk plot
Assay type: biochemical
Conditions: pH 7.0, 37 °C, 50 mM HEPES, 100 mM KCl, 1.9 mM CaCl2, 2 mM EGTA, 0.1% sodium deoxycholate; acyl chains of PIP2 not told

T1 sequence (Q8EX56 entry or part of it): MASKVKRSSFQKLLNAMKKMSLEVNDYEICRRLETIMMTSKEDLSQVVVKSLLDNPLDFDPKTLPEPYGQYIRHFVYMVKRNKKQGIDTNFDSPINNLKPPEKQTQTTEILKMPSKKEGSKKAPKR

Question: Which Km does the source give for PIP2 here?
Answer: 199 µM
